Among the data in ChEMBL document CHEMBL5726444, “Pyrazole derivative” (2017) are IC50 values, retold here.

Each structure is given as a SMILES string.

This assay deals with cAMP and cAMP-inhibited cGMP 3',5'-cyclic phosphodiesterase 10A (Homo sapiens, UniProt Q9Y233). The assay is described as follows: Phosphodiersterase Evaluation Assay: IMAP TR-FRET Phosphodiersterase Evaluation Assay Kit (Molecular Device) was used for the measurement. Ten μL of a diluted test compound having each concentration and 5 μL of the enzyme PDE10 (BPA Bioscience) that had been diluted to 2 ng/mL with 1×IMAP Reaction Buffer (prepared with 5×included with the kit, 10 mM Tris-HCl, pH=7.2, 10 mM MgCl2, 0.05% NaN3, and 0.1% BSA) containing 0.1% BSA were added to a 384-well plate (Corning). The obtained mixture was then pre-incubated at room temperature for 5 minutes. Thereafter, 5 μL of cAMP substrate solution which was included with the kit and diluted to 400 nM with 1×IMAP Reaction Buffer containing 0.1% BSA, was added to the reaction solution, and the obtained mixture was reacted at room temperature for 60 minutes. Thereafter, 60 μL of an IMAP TR-FRET Binding solution included with the kit was further added to the reaction solution, and the obtained mixture was then left for 3 hours or more. Subsequently, using ARVO SX (PerkinElmer), the fluorescent intensity of Terbium (Emission=490 nm) and TR-FRET (Emission=520 nm) in the reaction solution were measured at an excitation wavelength of 340 nm, so as to calculate the amount of the generated 5′-AMP. […].
Sequence of cAMP and cAMP-inhibited cGMP 3',5'-cyclic phosphodiesterase 10A (Q9Y233 whole entry): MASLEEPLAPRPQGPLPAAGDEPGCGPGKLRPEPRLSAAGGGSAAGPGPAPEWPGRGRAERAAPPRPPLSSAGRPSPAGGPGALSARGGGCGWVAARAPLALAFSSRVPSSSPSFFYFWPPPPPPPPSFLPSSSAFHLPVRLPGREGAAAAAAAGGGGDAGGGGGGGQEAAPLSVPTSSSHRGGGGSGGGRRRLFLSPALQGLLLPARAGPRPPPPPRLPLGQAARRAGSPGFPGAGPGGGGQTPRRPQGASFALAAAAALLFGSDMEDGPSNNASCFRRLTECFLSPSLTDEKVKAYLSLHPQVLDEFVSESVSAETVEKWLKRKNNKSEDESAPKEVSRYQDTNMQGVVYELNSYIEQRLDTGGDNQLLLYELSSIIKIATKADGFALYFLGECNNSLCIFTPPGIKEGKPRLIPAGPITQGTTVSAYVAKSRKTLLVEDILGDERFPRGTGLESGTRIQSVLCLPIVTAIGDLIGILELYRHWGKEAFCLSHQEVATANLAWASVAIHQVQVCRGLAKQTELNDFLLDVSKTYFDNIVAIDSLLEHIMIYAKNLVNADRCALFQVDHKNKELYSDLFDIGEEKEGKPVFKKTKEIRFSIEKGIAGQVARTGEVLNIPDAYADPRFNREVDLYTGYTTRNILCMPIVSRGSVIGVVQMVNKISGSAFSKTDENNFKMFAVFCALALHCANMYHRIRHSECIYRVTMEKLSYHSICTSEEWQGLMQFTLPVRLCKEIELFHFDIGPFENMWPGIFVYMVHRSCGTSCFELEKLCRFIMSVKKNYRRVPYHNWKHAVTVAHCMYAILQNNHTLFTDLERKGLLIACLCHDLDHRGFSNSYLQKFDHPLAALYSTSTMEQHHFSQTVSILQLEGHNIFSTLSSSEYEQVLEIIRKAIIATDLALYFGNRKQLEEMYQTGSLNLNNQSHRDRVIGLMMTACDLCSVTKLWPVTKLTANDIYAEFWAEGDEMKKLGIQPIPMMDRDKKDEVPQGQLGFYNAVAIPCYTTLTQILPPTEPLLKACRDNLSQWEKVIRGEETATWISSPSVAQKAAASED

The term IC50 denotes the concentration that gives 50% inhibition. Regarding `Cc1cccc(-c2cnn(C)c2C(=O)Nc2cc3nc(N4CCC[C@@H]4C(F)(F)F)nn3cc2F)n1`, the IC50 was below 5 nM.
